# Measurements published in patent publication US20250241926A1, “HETEROCYCLIC COMPOUNDS FOR USE IN THE TREATMENT OF CANCER” (ARTIOS PHARMA LIMITED, priority 2021, published 2025).
# Target: T1, Human Polθ polymerase domain (aa1820-2590) (Homo sapiens, UniProt O75417)
# T1 construct: Human Polθ polymerase domain (aa1820-2590) was expressed in E. Coli; made in house; host or cells: E. coli
# T1 sequence (O75417 1820-2590): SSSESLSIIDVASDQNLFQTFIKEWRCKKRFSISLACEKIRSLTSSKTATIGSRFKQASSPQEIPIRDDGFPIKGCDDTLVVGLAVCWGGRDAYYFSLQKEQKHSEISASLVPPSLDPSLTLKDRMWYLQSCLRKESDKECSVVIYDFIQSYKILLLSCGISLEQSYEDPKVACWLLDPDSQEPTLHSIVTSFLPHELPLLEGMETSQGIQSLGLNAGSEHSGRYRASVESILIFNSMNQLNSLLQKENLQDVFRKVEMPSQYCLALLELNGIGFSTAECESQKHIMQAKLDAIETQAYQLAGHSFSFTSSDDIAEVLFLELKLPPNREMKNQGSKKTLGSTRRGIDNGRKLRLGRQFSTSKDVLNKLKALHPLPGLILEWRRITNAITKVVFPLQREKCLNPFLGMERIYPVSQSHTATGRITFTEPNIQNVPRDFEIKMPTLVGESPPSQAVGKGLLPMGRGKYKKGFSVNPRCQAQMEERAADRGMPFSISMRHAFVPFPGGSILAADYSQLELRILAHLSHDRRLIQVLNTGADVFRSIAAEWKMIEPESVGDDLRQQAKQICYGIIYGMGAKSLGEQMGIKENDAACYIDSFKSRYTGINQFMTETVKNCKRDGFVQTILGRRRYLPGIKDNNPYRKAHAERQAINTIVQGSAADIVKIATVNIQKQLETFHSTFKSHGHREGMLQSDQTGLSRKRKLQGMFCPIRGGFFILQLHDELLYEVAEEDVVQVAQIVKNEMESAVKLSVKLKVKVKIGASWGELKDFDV
# Experiment: Polθ Polymerase Domain Kinact/Kl Assay (PicoGreen)
# Type: biochemical
# Conditions: covalent inhibitors, kobs vs [I] fit, 0.8 nM Polθ, 100 nM DNA substrate
# In short: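 E. coli-expressed enzyme (0.8 nM final) was run with 100 nM annealed DNA substrate and dNTPs in Tris pH 7.5 buffer (1% DMSO), with EDTA stops across a time course up to 60 min. Synthesised DNA was read by PicoGreen fluorescence. kobs per inhibitor concentration was fitted from the time courses, and Kinact and KI came from the kobs-vs-[I] plot.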
row,kinact/KI [M⁻¹ s⁻¹],Compound
1,380000,"2-(((3S)-6-(2-(7- ((E)-4-(Dimethyl- amino)but-2-eno- yl)-1-oxo-2,7- diazaspiro[4.4] nonan-2-yl)ethyl)- 7-fluoro-1- methyl-2-oxo- 1,2,3,4,5,6-hexa- hydrobenzo[b] [1,4]diazocin-3- yl)amino)-6-meth- yl-4-(trifluoro- methyl)nicotino- nitrile [Example 47]"
2,630000,"C=CC(=O)N1CCN2CCN(CCN3CC[C@H](Nc4nc(C)cc(C(F)(F)F)c4C#N)C(=O)N(C)c4cccc(F)c43)CC2C1 (mixture of isomers) [Example 72B, 2-(((S)-6-(2-((S/R)-8-acryloyloctahydro-2H-pyrazino[1,2-a]pyrazin-2-yl)ethyl)-7-fluoro-1-methyl-2-oxo-1,2,3,4,5,6-hexahydrobenzo[b][1,4]diazocin-3-yl)amino)-6-methyl-4-(trifluoromethyl)nicotinonitrile]"
3,190000,"(S)-2-((6-(2-(3-(4-Acrylo- ylpiperazin-1-yl)azetidin- 1-yl)ethyl)-7-fluoro-1- methyl-2-oxo-1,2,3,4,5,6- hexahydrobenzo[b][1,4] diazocin-3-yl)amino)-6- methyl-4-(trifluorometh- yl)nicotinonitrile [Example 10]"

# Same assay, conditions: covalent inhibitors, kobs vs [I] fit, 0.8 nM Polθ, 100 nM DNA substrate, read-out: Kinact/KI
row,Compound,kinact/KI [M⁻¹ s⁻¹]
1,"C=CC(=O)N1CC2(CC(CN3CC[C@H](Nc4nc(C)cc(C(F)(F)F)c4C#N)C(=O)N(C)c4ccccc43)C2)C1 [Example 52, (S)-2-((6-((2-Acryloyl-2-azaspiro[3.3]heptan-6-yl)methyl)-1-methyl-2-oxo-1,2,3,4,5,6-hexahydrobenzo[b][1,4]diazocin-3-yl)amino)-6-methyl-4-(trifluoromethyl)nicotinonitrile]",150000
2,"Cc1cc(C(F)(F)F)c(C#N)c(N[C@H]2CCN(CCCOC3CN(C(=O)/C=C/CN(C)C)C3)c3c(Cl)cccc3N(C)C2=O)n1 [Example 44, (S,E)-2-((7-Chloro-6-(3-((1-(4-(dimethylamino)but-2-enoyl)azetidin-3-yl)oxy)propyl)-1-methyl-2-oxo-1,2,3,4,5,6-hexahydrobenzo[b][1,4]diazocin-3-yl)amino)-6-methyl-4-(trifluoromethyl)nicotinonitrile]",1.3e+06

# Now from value to compound:
row,kinact/KI [M⁻¹ s⁻¹],Compound
1,560000,"CO[C@H]1CN(C(=O)/C=C/CN(C)C)C[C@@H]1C(=O)N(C)CCN1CC[C@H](Nc2nc(C)cc(C(F)(F)F)c2C#N)C(=O)N(C)c2cccc(F)c21 (relative stereo) [Example 28, (rel-3S,4R)—N-(2-((S)-4-((3-Cyano-6-methyl-4-(trifluoromethyl)pyridin-2-yl)amino)-10-fluoro-6-methyl-5-oxo-3,4,5,6-tetrahydrobenzo[b][1,4]diazocin-1(2H)-yl)ethyl)-1-((E)-4-(dimethylamino)but-2-enoyl)-4-methoxy-N-methylpyrrolidine-3-carboxamide]"
2,570000,"C=CC(=O)N1CC(N2CCN(CCN3CC[C@H](Nc4nc(C)cc(C(F)(F)F)c4C#N)C(=O)N(C)c4cccc(F)c43)C[C@@H]2C)C1 [Example 17, 2-(((S)-6-(2-((S)-4-(1-Acryloylazetidin-3-yl)-3-methylpiperazin-1-yl)-ethyl)-7-fluoro-1-methyl-2-oxo-1,2,3,4,5,6-hexa-hydrobenzo[b][1,4]diazocin-3-yl)amino)-6-methyl-4-(trifluorometh-yl)nicotinonitrile]"
3,1e+06,"Cc1cc(C(F)(F)F)c(C#N)c(N[C@H]2CCN(CC(O)CN3CCN(C(=O)/C=C/CN(C)C)CC3)c3c(F)cccc3N(C)C2=O)n1 (single isomer, unassigned) [Example 32B]"
4,300000,"C#CCN(C)C/C=C/C(=O)N1CC(OCCCN2CC[C@H](Nc3nc(C)cc(C(F)(F)F)c3C#N)C(=O)N(C)c3cccc(F)c32)C1 [Example 57, (S,E)-2-((7-Fluoro-1-methyl-6-(3-((1-(4-(methyl(prop-2-yn-1-yl)amino)but-2-enoyl)azetidin-3-yl)oxy)propyl)-2-oxo-1,2,3,4,5,6-hexahydrobenzo[b][1,4]diazocin-3-yl)amino)-6-methyl-4-(trifluoromethyl)nicotinonitrile]"
